# Measurements taken from US9877961B2, “Anticoagulant reversal agents” (PEROSPHERE INC., priority 2011, dated 2018).
# “Also recorded” adds a separate entry of the source.
# Tests used:
# [1] = Dynamic light scattering (DLS) association of DAP with unfractionated heparin; type: binding; details: DAP:heparin 100:1 mass ratio in water
# Method: Dynamic light scattering (DLS) was used to assess association of 1 mg/ml unfractionated heparin and 1 mg/ml bemiparin (LMWH; HIBOR®), either alone or in combination with […] DAP in water (mass ratios of 100:1 of DAP to heparin or LMWH).
# [2] = system: rivaroxaban anticoagulation; assay: Rat tail transection bleeding assay, rivaroxaban; type: in vivo
# Method: (§1) Rat tail bleeding assay or rat tail transection assay is an assay that measures blood loss, e.g., blood loss after drug administration. In one embodiment, where the effect of the compound of the invention (e.g., DAP) is being tested, at the Tmax of the anticoagulant, DAP is administered intravenously. After 20 minutes, rat tails are transected approximately 1 mm from the tip, placed in room temperature saline, and blood is collected for 30 minutes and weighed.
# (§2) Three rats each were administered 2 mg of rivaroxaban. One rat received a sham reversal containing no DAP, the second received 2.5 mg of DAP, and the third received 12.5 mg DAP. A fourth fat received sham anticoagulant and reversal doses (“sham”). 20 minutes after the reversal dose, tails were transected 1 mm from the tip, placed in room temperature saline, and blood loss was collected for 30 minutes and then weighed.
# human ERG = human ERG (Homo sapiens, UniProt Q12809); assay: Human ERG binding; details: data not shown
# Sequence of human ERG (Q12809 whole entry): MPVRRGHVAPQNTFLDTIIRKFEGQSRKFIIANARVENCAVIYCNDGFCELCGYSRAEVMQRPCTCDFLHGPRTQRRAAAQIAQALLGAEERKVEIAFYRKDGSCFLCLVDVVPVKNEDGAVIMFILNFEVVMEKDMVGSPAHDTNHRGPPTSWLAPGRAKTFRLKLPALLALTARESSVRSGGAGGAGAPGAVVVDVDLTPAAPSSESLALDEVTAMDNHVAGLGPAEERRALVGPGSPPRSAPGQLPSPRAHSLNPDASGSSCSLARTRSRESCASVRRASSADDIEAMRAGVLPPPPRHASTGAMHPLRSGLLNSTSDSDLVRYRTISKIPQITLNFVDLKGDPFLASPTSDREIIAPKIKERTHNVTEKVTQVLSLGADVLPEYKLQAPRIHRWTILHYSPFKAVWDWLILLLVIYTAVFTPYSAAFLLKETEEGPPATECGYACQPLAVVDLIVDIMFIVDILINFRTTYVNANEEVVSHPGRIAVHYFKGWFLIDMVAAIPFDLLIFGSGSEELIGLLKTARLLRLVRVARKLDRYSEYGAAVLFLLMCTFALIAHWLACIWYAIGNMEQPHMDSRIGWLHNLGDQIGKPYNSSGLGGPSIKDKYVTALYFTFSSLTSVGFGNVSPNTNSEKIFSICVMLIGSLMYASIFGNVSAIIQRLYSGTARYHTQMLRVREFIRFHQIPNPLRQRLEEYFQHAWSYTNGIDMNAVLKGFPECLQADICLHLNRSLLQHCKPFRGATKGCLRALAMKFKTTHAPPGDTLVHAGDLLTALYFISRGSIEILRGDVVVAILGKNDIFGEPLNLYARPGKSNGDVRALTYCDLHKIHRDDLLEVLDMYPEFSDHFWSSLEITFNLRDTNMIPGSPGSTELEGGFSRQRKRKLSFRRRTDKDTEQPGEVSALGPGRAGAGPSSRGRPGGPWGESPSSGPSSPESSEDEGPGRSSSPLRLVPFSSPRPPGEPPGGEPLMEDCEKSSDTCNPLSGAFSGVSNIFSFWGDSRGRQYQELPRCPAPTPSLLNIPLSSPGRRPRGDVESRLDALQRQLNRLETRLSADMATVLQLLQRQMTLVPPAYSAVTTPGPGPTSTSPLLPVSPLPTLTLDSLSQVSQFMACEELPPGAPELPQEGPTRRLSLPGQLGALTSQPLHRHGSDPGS
# [3] = system: apixaban (ELIQUIS®) anticoagulation; assay: Rat tail transection bleeding assay, apixaban; type: in vivo; details: for blood loss (blood collected over 30 minutes): p<0.01 vs apixaban only
# Method: as §1, §2
# Same procedures were used with 1.25 mg apixaban (ELIQUIS®) alone or in combination with 5 or 12.5 mg DAP; with 15.5 mg dabigatran etexilate (PRADAXA®) alone or in combination with 5 or 12.5 mg DAP; and with 5 mg edoxaban (LIXIANA®) alone or in combination with 12.5 mg DAP.
# [4] = system: rivaroxaban-induced anticoagulation; assay: DAP reversal of rivaroxaban in freshly drawn human blood ex vivo, aPTT; type: biochemical; details: 0.25 μg/ml rivaroxaban, 50 μg/ml DAP
# Method: Human blood was drawn from a volunteer. Rivaroxaban at 0.25 μg/ml was added alone or in combination with 50 μg/ml DAP. Controls contained 50 μg/ml DAP or saline. aPTT was measured within 2 minutes of blood collection.
# [5] = system: edoxaban (LIXIANA®) anticoagulation; assay: Rat tail transection bleeding assay, edoxaban; type: in vivo
# Method: as §1, §2
# Same procedures were used with 1.25 mg apixaban (ELIQUIS®) alone or in combination with 5 or 12.5 mg DAP; with 15.5 mg dabigatran etexilate (PRADAXA®) alone or in combination with 5 or 12.5 mg DAP; […]
# [6] = system: unfractionated heparin anticoagulation; assay: DAP reversal of unfractionated heparin anticoagulation in vivo, aPTT; design: species or system rat
# From the text: The activated partial thromboplastin time (aPTT) assay is an assay that measures how long it takes for the blood to clot. Blood samples are collected for direct measurement or in tubes with oxalate and citrate to arrest coagulation by calcium until the assay can be performed. In the assay, a phospholipid, an activator (silica, celite, kaolin, ellagic acid, etc.), and calcium are mixed into the plasma to induce coagulation. The assay measures the time until a thrombus (clot) forms.
# A male albino rat, weighing 515 g, was administered 10 mg/kg of unfractionated heparin (5 mg UFH) by subcutaneous injection.
# 200 mg/kg of DAP (100 mg DAP) was administered as two intravenous bolus injections after UFH administration. Subsequently, the rat was administered a dose of 400 mg/kg of DAP (200 mg of DAP). aPTT was measured throughout the course of the entire treatment.
# [7] = DLS association of DAP with apixaban; type: binding
# Method: Rivaroxaban (XARELTO®) alone, DAP alone, and DAP:rivaroxaban combinations at mass ratios of 1:1 and 10:1 were added into an aqueous solution and analyzed by dynamic light scattering (DLS) to assess association of the DAP and rivaroxaban. A similar experiment was conducted on apixaban (ELIQUIS®) alone, DAP alone, and DAP:apixaban combinations at mass ratios of 1:1, 10:1 and 100:1. Fondaparinux (ARIXTRA®) alone, DAP alone, and fondaparinux:DAP combinations at mass ratios of 1:1, 10:1 and 100:1 were similarly tested. LMWH (bemiparin; HIBOR®), alone, DAP alone, and LMWH:DAP combinations at mass ratios of 1:1, 10:1, and 100:1 were also tested. The concentration of LMWH tested was 0.1 mg/ml. Therefore, at 1:1, 0.1 mg/ml DAP was tested, at 10:1, 1 mg/ml was tested, and at 100:1, 10 mg/ml DAP was tested.
# [8] = system: rivaroxaban anticoagulation; assay: DAP reversal of rivaroxaban in human plasma ex vivo, Biophen anti-Factor Xa chromogenic assay; type: biochemical
# Method: The anti-factor Xa assay directly measures anti-factor Xa activity. The methodology behind an anti-factor Xa assay is that patient plasma is added to a known amount of excess factor Xa and excess antithrombin. If a factor Xa inhibitor is present in the patient plasma, it will reduce the enzymatic activity of factor Xa. The amount of residual factor Xa is inversely proportional to the amount of anti-Xa agent in the plasma. The amount of residual factor Xa is detected by adding a chromogenic substrate that mimics the natural substrate of factor Xa, making residual factor Xa cleave it, releasing a colored compound that can be detected by a spectrophotometer. […]
# 218 μg/L or 459 μg/L of rivaroxaban was added to human plasma, with or without 1,250 μg/L or 6,250 μg/L of DAP, respectively. […] DAP effect on anticoagulation was measured by 510 k cleared Biophen anti-Factor Xa chromogenic assay. Rivaroxaban concentrations were determined by comparison with plasma calibration standards, while apixaban concentrations were inferred from stock solution dilutions as calibration standards are not yet available.
# 218 μg/L rivaroxaban was added to human plasma either alone or in combination with 1.25, 12.5, 125, or 1,250 μg/L of DAP. Factor Xa activity was measured by 510 k cleared Biophen anti-Xa chromogenic assay kit. Rivaroxaban concentrations were determined by comparison with plasma calibration standards.
# [9] = rat tail transection, 30 minutes
structure (smiles),measurement,setting,value
"N=C(N)NCCC[C@H](N)C(=O)NCCCN1CCN(CCCNC(=O)[C@@H](N)CCCNC(=N)N)CC1 (stereo in doubt) [DAP, 2-Amino-5-guanidino-pentanoic acid (3-{4-[3-(2-amino-5-guanidino-pentanoylamino)-propyl]-piperazin-1-yl}-propyl)-amide]",physical association / binding by DLS,[1],physically associated; also recorded: directly bound
same,blood loss (blood collected over 30 minutes),"[2]; 2 mg rivaroxaban and 12.5 mg DAP, p<0.05 vs rivaroxaban only",reduced blood loss to sham dose levels
same,"reversal of rivaroxaban, blood loss vs anticoagulant only",[2]; [9],statistically significant reduction in blood loss
same,human ERG binding,human ERG,no human ERG binding
same,blood loss (blood collected over 30 minutes),[3]; 1.25 mg apixaban and 5 mg DAP,reduced blood loss to sham dose levels
same,blood loss (blood collected over 30 minutes),[3]; 1.25 mg apixaban and 12.5 mg DAP,reduced blood loss to sham dose levels
same,"reversal of apixaban, blood loss vs anticoagulant only",[3]; [9],reversed; also recorded: statistically significant reduction in blood loss
same,"effect on rivaroxaban-induced anticoagulation, aPTT",[4],reversal of rivaroxaban-induced anticoagulation
same,blood loss (blood collected over 30 minutes),"[5]; 1.25 mg edoxaban and 12.5 mg DAP, p<0.05 vs edoxaban only",reduced blood loss to sham dose levels
same,"reversal of edoxaban, blood loss vs anticoagulant only",[5]; [9],reversed; also recorded: statistically significant reduction in blood loss
same,aPTT after DAP,"[6]; 200 mg DAP i.v., 10 minutes",33 s
same,aPTT after DAP,"[6]; first 100 mg DAP i.v., 20 minutes",48 s
same,reversal of unfractionated heparin in vivo,"[6]; rat, in vivo",reversed
same,aPTT after DAP,"[6]; second 100 mg DAP i.v., 15 minutes",47 s
same,aPTT risen after first DAP dose,[6]; within 1 hour after first 100 mg DAP,120 s
same,aPTT risen after second DAP dose,[6]; within 1 hour after second 100 mg DAP,96 s
same,binding by DLS,[7],directly bound
same,effective anticoagulant concentration after DAP,"[8]; 218 μg/L rivaroxaban with 1,250 μg/L DAP, 459 μg/L rivaroxaban with 6,250 μg/L DAP",below the minimum effective concentration
same,dose dependence of rivaroxaban reversal,"[8]; 218 μg/L rivaroxaban, 1.25, 12.5, 125, or 1,250 μg/L DAP",dose-responsive trend; also recorded: dose-dependent reversal
